“Also recorded” adds a separate entry of the source. Read-outs that look alike come from different tables or passages of the source.
How the values were obtained:
[1] = tested on: VSV-G pseudotyped HIV-1 vector (wild-type, pNL4-3LucR+E-); test: microbe, parasite or virus in culture; format: cell-based; details: for EC50 / IC50: Human immunodeficiency virus 1, HEK-293T
[2] = tested on: HIV-1 vector with RT mutation V106A; test: microbe, parasite or virus in culture; format: cell-based; details: Human immunodeficiency virus 1
[3] = biological target: T1, HIV-1 reverse transcriptase (Human immunodeficiency virus type 1 group M subtype B, UniProt P04585); test: in vitro purified HIV-1 reverse transcriptase assay; format: biochemical
T1 construct: HIV-1 RT includes a p66/p51 heterodimer; purchased Ambion, Austin, Tex
Experimental: Anti-HIV-1 reverse transcriptase activity of the disclosed inhibitor compounds was assayed in vitro using an assay adapted from King et al. (Antimicrob. Agents Chemother. 46(6): 1640-46; 2002) and Telesnitsky et al. (Methods Enzymol. 262:347-62; 1995). HIV-1 RT (0.5 units; Ambion, Austin, Tex.) was incubated with various concentrations of compounds for 5 minutes at room temperature. Then a template-primer mixture was added to reach final concentration of 5 μg/mL oligo(dT)20, 10 μg/mL poly(rA), 1.25 μM [α-32P]dTTP and 10 μM dTTP. The mixture was incubated at 37° C. for 60 minutes. Aliquots of the reaction were spotted on DEAE paper, washed twice with 2×SSC buffer (300 mM NaCl, 30 mM sodium citrate) and once with 95% ethanol, dried and exposed to PhosphorImager screen (Molecular Dynamics, Sunnyvale, Calif.). The screens were scanned by FLA-5100 instrument (Fujifilm Life Science, Stamford, Conn.) and the amount of incorporated labeled phosphate was used to quantify the RT activity. The best fitted curves and IC50 values were calculated using Prism 4 software (GraphPad Software, San Diego). […] For the in vitro studies, a triphosphate form of AZT (EMD Biosciences, San Diego, Calif.) was used.

[4] = tested on: cells that express luciferase from established HIV-1 proviral DNA; test: effect on provirus gene expression; format: cell-based; details: data not shown
Description: It also was investigated whether 08-006-F2 exerts an additional effect on provirus gene expression.

[5] = cytotoxicity, CellTiter-Glo (ATP content) 24 hours after treatment; details: human, mock-infected 293T cells
[6] = tested on: HIV-1 vector with RT mutation Y181C; test: microbe, parasite or virus in culture; format: cell-based; details: Human immunodeficiency virus 1
[7] = tested on: HIV-1 reverse transcription viral DNA products; test: real-time PCR quantitation of viral DNA products; format: cell-based; details: for effect on synthesis of early and late viral DNA products: 5 μM, 24 hours post infection, FIG. 18
Experimental: Real-time quantitation of viral DNA was accomplished using PCR as follows. The total cellular DNA was harvested 24 hours post infection with the AccuPrep genomic DNA extraction kit (Bioneer Life Science Corp., Rockville, Md.). The amount of viral DNA products was quantified by real-time PCR on ABI Prism 7900 Sequence Detection System (Applied Biosystems, Foster City, Calif.) with the following primers and probes: early HIV-1 reverse transcripts with primers ert2f, ert2r, probe ERT2 (Munk et al., Proc. Natl. Acad. Sci. 99(21):13843-48; 2002, herein incorporated by reference as to the sequence of the primers), late HIV-1 reverse transcripts with primers MH531, MH532, probe LRT-P, 2-LTR circular DNA with primers MHH535, MH536, probe MH603 (Butler et al., Nat. Med. 7(5):631-4; 2001, herein incorporated by reference as to the sequence of the primers and probes). To control the number of cell equivalent DNA in the samples, a single-copy locus in the porphobilinogen deaminase (PBGD) gene (Buckman et al., J. Virol. 77(2):1469-80; 2003) was amplified with primers PBGD1 (5′-[…]; SEQ ID NO: 1) and PBGD2 (5′-[…]; SEQ ID NO: 2) and probe PBGD-P (5′-VIC-[…]-MGBNFQ; SEQ ID NO: 3).
The quantitative real-time PCR-based approach described above was used to determine whether the presently disclosed compounds, such as 08-006-F2, block HIV infection at a step prior to the synthesis of late viral DNA products. Using different specific primers and probes, the amount of early viral DNA products, late viral DNA products, and 2LTR-containing circular forms of viral DNA, were quantified 24 hours post infection. […] As shown in F1G. 18, the effect of 5 μM compound 08-006-F2 and 5 μM AZT on the synthesis of viral DNA products was measured by quantitative real-time PCR. Quantitation of early and late HIV-1 reverse transcription products is illustrated, as is quantitation of 2-LTR containing circular DNA forms (the circular DNA forms serve as a surrogate marker for nuclear translocation of viral DNA). […]

[8] = tested on: HIV-1 vector with RT mutation K103N; test: microbe, parasite or virus in culture; format: cell-based; details: Human immunodeficiency virus 1
[9] = tested on: HIV-1 vector with RT mutation Y188L; test: microbe, parasite or virus in culture; format: cell-based; details: Human immunodeficiency virus 1
[10] = tested on: wild-type and NNRTI mutant viruses (Y188L, Y181C, V106A, K103N); test: cell based infectivity assay, wild type and four mutant vectors together; parameters: species or system HIV-1; details: FIGS. 22 and 24
[11] = tested on: HIV reverse transcriptase having a mutation at codon 181 and 227; details: strains with RT mutation at codon 181 (cysteine) and 227 (leucine); U.S. Pat. No. 7,037,644; cited from earlier work
[12] = tested on: HIV reverse transcriptase having a mutation at codon 106 and 181 and 227; details: strains with RT mutation at codon 106 (alanine), 181 (cysteine) and 227 (leucine); U.S. Pat. No. 7,037,644; cited from earlier work
[13] = tested on: HIV reverse transcriptase having a mutation at codons 103 alone or in combination with a mutation at codon 188; details: strains with RT mutation at codon 103 (asparagine) alone or with 188 (leucine); U.S. Pat. No. 7,037,644; cited from earlier work

SMILES	EC50 [1]	EC50 [2]	EC50 [6]	effect on synthesis of early and late viral DNA products [7]	EC50 [8]	EC50 [9]	change in drug susceptibility [11]	change in drug susceptibility [12]	change in drug susceptibility [13]	further results
Clc1ccccc1-c1nc2ccccn2c1NC1CCCCC1 [08-006-F2]	185 nM	764 nM	1070 nM	blocked the synthesis of early and late viral DNA	2360 nM					combined effect with AZT on HIV-1 infectivity (isobologram) [1]: synergistic effects; also recorded: synergistic inhibition; IC50 [1]: 800 nM; IC50 ([1]; read-out: IC50 inhibition of HIV-1 vector infectivity): 170 nM; IC50 ([3]; FIG. 16 dose-response curve, read-out: IC50 inhibition of purified HIV-1 reverse transcriptase activity): 2800 nM; combined effect with AZT on purified HIV-1 reverse transcriptase (isobologram) ([3]; combination with AZT triphosphate, 50% and 90% fractional inhibitory concentrations, FIGS. 17A, 17B): synergistic effect; also recorded: synergistic inhibition; effect on provirus gene expression [4]: no significant influence; CC50 at 24 h [5]: 35000 nM; inhibition of HIV-1 late RT product formation ([7]; dose response, FIG. 19): dose-dependent inhibition
Cc1cn([C@H]2C[C@H](N=[N+]=[N-])[C@@H](CO)O2)c(=O)[nH]c1=O [AZT, zidovudine]	7.7 nM	9.14 nM	6.12 nM	block at the reverse transcription step	8.76 nM	9.35 nM				inhibition of wild-type and NNRTI-resistant RT mutant viruses (in words) [10]: efficiently inhibited
Cc1ccnc2c1NC(=O)c1cccnc1N2C1CC1 [NVP, nevirapine]	27.4 nM	888 nM	2000 nM		977 nM	279000 nM				
CC(C)Nc1cccnc1N1CCN(C(=O)c2cc3cc(NS(C)(=O)=O)ccc3[nH]2)CC1 [delavirdine]							increase	moderate decrease	substantial decrease	
O=C1Nc2ccc(Cl)cc2[C@@](C#CC2CC2)(C(F)(F)F)O1 [efavirenz]							increase	slight decrease	substantial decrease	
Cc1ccnc2c1NC(=O)c1cccnc1N2C1CC1 [nevirapine, Nevirapine]							significant decrease	substantial decrease	substantial decrease	

Reference: patent US20100292232A1, “NON-NUCLEOSIDE REVERSE TRANSCRIPTASE INHIBITORS” (priority 2007, published 2010)
